Test results: ChEMBL document CHEMBL3046596, “Antinociceptive activities of some triazole and pyrazoline moieties-bearing compounds” (Med Chem Res, 2012)

Assays:
[1] = tested on: Mus musculus; assay: Toxicity in Mus musculus Swiss albino (mouse) assessed as mortality at 100 mg/kg, ip; format: organism-based; set-up: dose 100 mg/kg, route intraperitoneal; settings: in vivo
[2] = tested on: Mus musculus; assay: Toxicity in Mus musculus Swiss albino (mouse) assessed as horizontal locomotor activity at 100 mg/kg, ip; format: organism-based; set-up: dose 100 mg/kg, route intraperitoneal; settings: in vivo
[3] = tested on: Mus musculus; assay: Antinociceptive activity in Mus musculus Swiss albino (mouse) assessed as prolongation of reaction latency to mechanical stimuli at 100 mg/kg, ip administered 30 min before experimental session by tail-clip test; format: functional; settings: route intraperitoneal
[4] = tested on: Mus musculus; assay: Toxicity in Mus musculus Swiss albino (mouse) assessed as vertical locomotor activity at 100 mg/kg, ip; format: organism-based; set-up: dose 100 mg/kg, route intraperitoneal; settings: in vivo
[5] = tested on: Mus musculus; assay: Antinociceptive activity against formalin-induced pain in Mus musculus Swiss albino (mouse) assessed as inhibition of licking during first phase (0 to 5 min) at 100 mg/kg, ip administered 30 min before experimental session; format: functional; settings: route intraperitoneal
[6] = tested on: Mus musculus; assay: Antinociceptive activity against formalin-induced pain in Mus musculus Swiss albino (mouse) assessed as inhibition of licking during second phase (15 to 30 min) at 100 mg/kg, ip administered 30 min before experimental session; format: functional; settings: route intraperitoneal
[7] = tested on: Mus musculus; assay: Antinociceptive activity in Mus musculus Swiss albino (mouse) assessed as increase in reaction (paw licking and jumping) latency to thermal stimulus at 100 mg/kg, ip administered 30 min before experimental session by hot plate test; format: functional; settings: route intraperitoneal
[8] = species: Mus musculus; assay: animal or person; settings: Swiss albino, ip, read-out: INH
Description: Antinociceptive activity against formalin-induced pain in Mus musculus Swiss albino (mouse) assessed as inhibition of licking during second phase (15 to 30 min) at 10 mg/kg, ip administered 30 min before experimental session

[9] = tested on: Mus musculus; assay: Antinociceptive activity in Mus musculus Swiss albino (mouse) assessed as increase in reaction (paw licking and jumping) latency to thermal stimulus at 10 mg/kg, ip administered 30 min before experimental session by hot plate test; format: functional; settings: route intraperitoneal
[10] = species: Mus musculus; assay: animal or person; settings: Swiss albino, ip, read-out: INH; remark: listed apart in the source
Description: Antinociceptive activity against formalin-induced pain in Mus musculus Swiss albino (mouse) assessed as inhibition of licking during first phase (0 to 5 min) at 10 mg/kg, ip administered 30 min before experimental session

[11] = tested on: Mus musculus; assay: Antinociceptive activity in Mus musculus Swiss albino (mouse) assessed as prolongation of reaction latency to mechanical stimuli at 10 mg/kg, ip administered 30 min before experimental session by tail-clip test; format: functional; settings: route intraperitoneal

SMILES | Activity [1] | Activity [2] | MPE [3] | Activity [4] | inhibition in vivo at 100 mg/kg [5] | inhibition in vivo at 100 mg/kg [6] | Activity [7] | inhibition in vivo at 10 mg/kg [8] | Activity [9] | inhibition in vivo at 10 mg/kg [10] | MPE [11]
Cc1ccc(C2CC(c3cccs3)=NN2C(=O)CSc2nnc(CCc3ccc(O)cc3)n2N)cc1 (stereo unspecified) | Non-toxic | Non-toxic | 53.5% | Non-toxic | 35.4% | 42.5% | 50.3% | – | – | – | –
Nn1c(CCc2ccc(O)cc2)nnc1SCC(=O)N1N=C(c2cccs2)CC1c1ccc2c(c1)OCO2 (stereo unspecified) | Non-toxic | Non-toxic | 36.2% | Non-toxic | 32% | 37.3% | 45.1% | – | – | – | –
Nn1c(CCc2ccc(O)cc2)nnc1SCC(=O)N1N=C(c2cccs2)CC1c1ccc(F)cc1 (stereo unspecified) | Non-toxic | Non-toxic | 85% | Non-toxic | 73.7% | 78.3% | 89% | – | – | – | –
CN1CC[C@]23c4c5ccc(O)c4O[C@H]2[C@@H](O)C=C[C@H]3[C@H]1C5 [MORPHINE] | – | – | – | – | – | – | – | 100% | 92.5% | 100% | 88.1%
Nn1c(CCc2ccc(O)cc2)nnc1SCC(=O)N1N=C(c2cccs2)CC1c1ccc(Cl)cc1 (stereo unspecified) | Non-toxic | Non-toxic | 75.3% | Non-toxic | 68.7% | 72.1% | 81.6% | – | – | – | –
CN(C)c1ccc(C2CC(c3cccs3)=NN2C(=O)CSc2nnc(CCc3ccc(O)cc3)n2N)cc1 (stereo unspecified) | Non-toxic | Non-toxic | 36.5% | Non-toxic | 31.3% | 38.9% | 38.5% | – | – | – | –
Nn1c(CCc2ccc(O)cc2)nnc1SCC(=O)N1N=C(c2cccs2)CC1c1ccccc1 (stereo unspecified) | Non-toxic | Non-toxic | 80.2% | Non-toxic | 66.6% | 79.2% | 79.4% | – | – | – | –
